The values that follow come from US20260345792A1, “PROTACs AND HyT-PD MOLECULES FOR TARGETED PROTEIN DEGRADATION OF DCAF15 AND THEIR USE IN THE TREATMENT OF AMYLOIDOSIS” (KRÆFTENS BEKÆMPELSE, priority 2023, published 2026).

Where a SMILES comes first, the peptide text is derived from it. The star is where a group is joined. Cbz = O=C(OCc1ccccc1)*

Data set [1] deals with DCAF15. The conditions noted are these: Han et al., 2017 and WO 2022/169755; cited from earlier work.
Data set [2] concerns HCT116 cells. In words: Clearance of protein aggregates: puromycin with Bafilomycin or MG132. The settings on record: with 5 μg/ml puromycin 4 h; 200 nM Bafilomycin or 5 μM MG132. Type of data set: cell-based. As for the experimental part:
Cells were fixed and stained for ubiquitin and p62. A representative experiment is shown (n=3).
HCT116 cells were treated with 5 μg/ml puromycin for 4 h alone or in combination with 200 nM Bafilomycin-1 or 5 μM MG132. Cells were fixed and stained for ubiquitin and p62. A representative experiment is shown (n=3) (see FIG. 3A). The double positive puncta per cell was quantified (see FIG. 3B).

The test system of data set [3] is human cancer cell lines. The conditions noted are these: cited from earlier work.
Data set [4] deals with HCT116 cells; BE2C cells. Put plainly: Ubiquitin and p62 co-stained aggregates per cell after puromycin, by DCAF15 genotype. Type of data set: cell-based. The conditions noted are these: 5 μg/ml puromycin, 4 h; DCAF15−/− vs WT and reconstituted cell lines. As for the experimental part: Cells were stained for ubiquitinated proteins and p62. Separate and merged channels from a representative experiment are shown (n>3).
HCT116 cells with indicated genotypes were treated with 5 μg/ml puromycin for 4 h or left untreated (NT) before fixation. Cells were stained for ubiquitinated proteins and p62. Separate and merged channels from a representative experiment are shown (n>3) (see FIG. 1A). The number of ubiquitin and p62 co-stained aggregates per cell were quantified (see FIG. 1B.).
BE2C cells with indicated genotypes were treated and analysed as above (n=3). Separate and merged channels from a representative experiment are shown (n>3) (see FIG. 1C). The number of ubiquitin and p62 co-stained aggregates per cell were quantified (see FIG. 1D.).
Cell lines: WT (wild-type), DCAF15−/− (CRISPR-mediated stable DCAF15−/− knock-out cells), DCAF15−/−+WT 3xF (DCAF15−/− cells reconstituted with WT DCAF15 with 3×flag-tag).

Data set [5] has as its system HCT116 cells. Put plainly: Proliferation (confluency) and clonogenic survival after puromycin, by DCAF15 genotype. It counts as cell-based. The conditions noted are these: 5 μg/ml puromycin 4 h. As for the experimental part: Confluency was recorded with imaging every 4 h. Representative experiments with technical triplicates are shown (n=3).
HCT116 cells were treated with 5 μg/ml puromycin for 4 h or left untreated before being released into normal growth media for 72 h. Confluency was recorded with imaging every 4 h, representative experiments with technical triplicates (n=3) are shown (see FIG. 4A.). HCT116 cells were treated with 5 μg/ml puromycin for 4 h before release into full media or left untreated for 7 days before fixation and crystal violet staining (see FIG. 4B.). Quantification of FIG. 4B as integrated density per well (see FIG. 4C).

For `O=C(NS(=O)(=O)c1ccc(Br)s1)c1ccc(Cl)cc1Cl` [tasisulam], in data set [1], the “ligand for DCAF15” value is “act as ligands for DCAF15”.

Consider `CC(C)C[C@@H](C=O)NC(=O)[C@H](CC(C)C)NC(=O)[C@H](CC(C)C)NC(=O)OCc1ccccc1` [MG132] (Cbz-Leu-Leu-Leu-aldehyde), for which, in data set [2], the “aggregate numbers in WT and reconstituted cell lines” value was “enhance aggregate numbers in WT and reconstituted cell lines”; the “re-appearance of aggregates in DCAF15−/− cells” value was “we do not detect any re-appearance of aggregates in DCAF15−/− cells after treatments”.

Consider `CO/C1=C\C(C)=C\[C@@H](C)[C@@H](O)[C@@H](C)C/C(C)=C/C=C/[C@H](OC)[C@@H]([C@@H](C)[C@@H](O)[C@H](C)[C@@]2(O)C[C@@H](O)[C@H](C)[C@@H](C(C)C)O2)OC1=O` [Bafilomycin A1], for which, in data set [2], the “aggregate numbers in WT and reconstituted cell lines” value was “enhance aggregate numbers in WT and reconstituted cell lines”; the “re-appearance of aggregates in DCAF15−/− cells” value was “we do not detect any re-appearance of aggregates in DCAF15−/− cells after treatments”.

As for `NS(=O)(=O)c1ccc(S(=O)(=O)Nc2cccc3c(Cl)c[nH]c23)cc1` [indisulam], the “ligand for DCAF15” value in data set [1] was “act as ligands for DCAF15”. Moreover, the inhibition of proliferation result in data set [3] is listed as “inhibits the proliferation of certain human cancer cell lines”.

Consider `COc1ccc(C[C@H](N)C(=O)N[C@H]2[C@@H](O)[C@H](n3cnc4c(N(C)C)ncnc43)O[C@@H]2CO)cc1` [Puromycin, puromycin], for which the “protein aggregation (co-localization of ubiquitin and p62)” value in data set [4] was “significant reduction of aggregates in DCAF15−/− cells relative to WT and reconstituted cell lines”. Moreover, the “clonogenic survival, sensitivity of DCAF15−/− cells” value in data set [5] (7 days, crystal violet (FIGS. 4B and 4C)) was “insensitivity of DCAF15−/− cells to puromycin-induced toxicity”. Further, in data set [5] (release for 72 h (FIG. 4A)), the “proliferation of DCAF15−/− cells” value is given as “DCAF15−/− cells remain undeterred by puromycin treatment”; the “proliferation rates in WT and reconstituted cell lines” value is recorded as “significantly reduced proliferation rates”.
